Values of other authors as cited in patent US20230364244A1, “DENDRIMER COMPOSITIONS AND METHODS FOR DRUG DELIVERY TO INJURED KIDNEY” (Ashvattha Therapeutics, Inc., priority 2020, published 2023).

Target: T1, PPAR-δ (Homo sapiens, UniProt Q03181)
T1 construct: host or cells: human mesenchymal stem cells (endogenous receptor)
T1 sequence (Q03181 1-441): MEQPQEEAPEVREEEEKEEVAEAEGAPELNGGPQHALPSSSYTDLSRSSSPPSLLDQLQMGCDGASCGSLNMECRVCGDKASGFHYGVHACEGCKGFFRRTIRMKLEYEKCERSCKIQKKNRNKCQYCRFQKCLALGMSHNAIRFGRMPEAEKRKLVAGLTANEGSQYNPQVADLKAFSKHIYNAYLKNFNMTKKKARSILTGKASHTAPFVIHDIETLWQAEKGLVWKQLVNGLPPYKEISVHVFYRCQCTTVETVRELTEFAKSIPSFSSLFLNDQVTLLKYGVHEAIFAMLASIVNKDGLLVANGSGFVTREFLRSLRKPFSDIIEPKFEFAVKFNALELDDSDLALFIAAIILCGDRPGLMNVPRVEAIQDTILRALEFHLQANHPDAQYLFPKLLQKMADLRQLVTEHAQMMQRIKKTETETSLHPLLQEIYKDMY
Conditions: co-culture; inhibition of PPAR-δ in MSCs

O=C(NCCS(=O)(=O)c1ccc(C(F)(F)F)cn1)c1ccc(Cl)cc1 [GSK3787]
ability of human MSCs to limit proliferation of peripheral blood mononuclear cells: enhanced their ability to limit proliferation of peripheral blood mononuclear cells
